Data from patent US20230085307A1, “PYRIDAZINONE COMPOUND AND HERBICIDE” (NISSAN CHEMICAL CORPORATION, priority 2019, published 2023).

Tests used:
[1] = tested on: late watergrass; assay: Test Example 1: herbicidal activity, application before weed generation under submerged conditions (Table 16, symbol A); format: in vivo, late watergrass (Echinochloa oryzicola); details: amount of applied herbicide 320 g/ha
Method in brief: (§1)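 Submerged Wagner pots (alluvial soil, 4 cm water) sown with weed seeds and planted with 2.5-leaf rice seedlings; emulsifiable concentrate diluted in water applied to water surface on sowing day. Held in greenhouse at 25-30 °C; injury scored 0-5 by herbicidal rate after three weeks.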

[2] = tested on: Japanese bulrush; assay: Test Example 1: herbicidal activity, application before weed generation under submerged conditions (Table 16, symbol B); format: in vivo, Japanese bulrush (Schoenoplectus juncoides); details: amount of applied herbicide 320 g/ha
Method in brief: as §1

[3] = tested on: oval-leafed pondweed; assay: Test Example 1: herbicidal activity, application before weed generation under submerged conditions (Table 16, symbol C); format: in vivo, oval-leafed pondweed (Monochoria vaginalis); details: amount of applied herbicide 320 g/ha
Method in brief: as §1

[4] = tested on: barnyard grass; assay: Test Example 3: herbicidal effect by foliage application, Wagner pot (Table 18, symbol H); format: in vivo, barnyard grass (Echinochloa crus-galli); details: 320 g/ha
Method in brief: (§2)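 Plants were sown in alluvial soil held under 0.1–0.5 cm standing water and grown 14 days in a greenhouse at 25–30 °C. An emulsifiable formulation, water-diluted to the set dose, was then sprayed onto the foliage, and effects were scored three weeks later using previously defined criteria.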

[5] = tested on: Chinese sprangletop; assay: Test Example 3: herbicidal effect by foliage application, Wagner pot (Table 18, symbol D); format: in vivo, chinese sprangletop (Leptochloa chinensis); details: 320 g/ha
Method in brief: as §2

[6] = tested on: rice flat sedge; assay: Test Example 3: herbicidal effect by foliage application, Wagner pot (Table 18, symbol E); format: in vivo, rice flat sedge (Cyperus iria); details: 320 g/ha
Method in brief: as §2

[7] = tested on: southern crabgrass; assay: Test Example 4: herbicidal effect by soil treatment (Table 19, symbol F); format: in vivo, southern crabgrass (Digitaria ciliaris); details: amount of applied herbicide 320 g/ha
Method in brief: (§3)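 In this soil treatment, the formulated compound reached the seeds only through the soil: seeds were buried about 1.5 cm deep in sterilized diluvial soil, then the diluted emulsion was sprayed over the surface. After three weeks at 25° C. to 30° C. in a greenhouse, effects were graded on criteria from an earlier test.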

[8] = tested on: green foxtail; assay: Test Example 4: herbicidal effect by soil treatment (Table 19, symbol G); format: in vivo, green foxtail (Setaria viridis); details: amount of applied herbicide 320 g/ha
Method in brief: as §3

[9] = tested on: barnyard grass; assay: Test Example 4: herbicidal effect by soil treatment (Table 19, symbol H); format: in vivo, barnyard grass (Echinochloa crus-galli); details: amount of applied herbicide 320 g/ha
Method in brief: as §3

[10] = tested on: wild oat; assay: Test Example 4: herbicidal effect by soil treatment (Table 19, symbol I); format: in vivo, wild oat (Avena fatua); details: amount of applied herbicide 320 g/ha
Method in brief: as §3

[11] = tested on: blackgrass; assay: Test Example 4: herbicidal effect by soil treatment (Table 19, symbol J); format: in vivo, blackgrass (Alopecurus myosuroides); details: amount of applied herbicide 320 g/ha
Method in brief: as §3

[12] = tested on: Italian ryegrass; assay: Test Example 4: herbicidal effect by soil treatment (Table 19, symbol K); format: in vivo, Italian ryegrass (Lolium multiflorum); details: amount of applied herbicide 320 g/ha
Method in brief: as §3

[13] = tested on: windgrass; assay: Test Example 4: herbicidal effect by soil treatment (Table 19, symbol L); format: in vivo, windgrass (Apera spica-venti); details: amount of applied herbicide 320 g/ha
Method in brief: as §3

[14] = tested on: velvetleaf; assay: Test Example 4: herbicidal effect by soil treatment (Table 19, symbol M); format: in vivo, velvetleaf (Abutilon theophrasti); details: amount of applied herbicide 320 g/ha
Method in brief: as §3

[15] = tested on: redroot pigweed; assay: Test Example 4: herbicidal effect by soil treatment (Table 19, symbol N); format: in vivo, redroot pigweed (Amaranthus retroflexus); details: amount of applied herbicide 320 g/ha
Method in brief: as §3

[16] = tested on: lambsquarters; assay: Test Example 4: herbicidal effect by soil treatment (Table 19, symbol O); format: in vivo, lambsquarters (Chenopodium album); details: amount of applied herbicide 320 g/ha
Method in brief: as §3

[17] = tested on: chickweed; assay: Test Example 4: herbicidal effect by soil treatment (Table 19, symbol P); format: in vivo, common chickweed (Stellaria media); details: amount of applied herbicide 320 g/ha
Method in brief: as §3

[18] = tested on: false cleavers; assay: Test Example 4: herbicidal effect by soil treatment (Table 19, symbol Q); format: in vivo, false cleavers (Galium spurium); details: amount of applied herbicide 320 g/ha
Method in brief: as §3

[19] = tested on: persian speedwell; assay: Test Example 4: herbicidal effect by soil treatment (Table 19, symbol R); format: in vivo, Persian speedwell (Veronica persica); details: amount of applied herbicide 320 g/ha
Method in brief: as §3

[20] = tested on: southern crabgrass; assay: Test Example 5: herbicidal effect by foliage application, plastic box (Table 20, symbol F); format: in vivo, southern crabgrass (Digitaria ciliaris); details: foliage application, 320 g/ha, three weeks after application
Method in brief: (§4)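 Plants were sown into sterilized diluvial soil under about 1.5 cm cover and kept in a greenhouse at 25° C. to 30° C. Fourteen days on, foliage received an even spray of the diluted emulsion. Herbicidal or crop effect was judged three weeks afterwards.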

[21] = tested on: green foxtail; assay: Test Example 5: herbicidal effect by foliage application, plastic box (Table 20, symbol G); format: in vivo, green foxtail (Setaria viridis); details: foliage application, 320 g/ha, three weeks after application
Method in brief: as §4

[22] = tested on: barnyard grass; assay: Test Example 5: herbicidal effect by foliage application, plastic box (Table 20, symbol H); format: in vivo, barnyard grass (Echinochloa crus-galli); details: foliage application, 320 g/ha, three weeks after application
Method in brief: as §4

[23] = tested on: wild oat; assay: Test Example 5: herbicidal effect by foliage application, plastic box (Table 20, symbol I); format: in vivo, wild oat (Avena fatua); details: foliage application, 320 g/ha, three weeks after application
Method in brief: as §4

[24] = tested on: blackgrass; assay: Test Example 5: herbicidal effect by foliage application, plastic box (Table 20, symbol J); format: in vivo, blackgrass (Alopecurus myosuroides); details: foliage application, 320 g/ha, three weeks after application
Method in brief: as §4

[25] = tested on: Italian ryegrass; assay: Test Example 5: herbicidal effect by foliage application, plastic box (Table 20, symbol K); format: in vivo, Italian ryegrass (Lolium multiflorum); details: foliage application, 320 g/ha, three weeks after application
Method in brief: as §4

[26] = tested on: windgrass; assay: Test Example 5: herbicidal effect by foliage application, plastic box (Table 20, symbol L); format: in vivo, windgrass (Apera spica-venti); details: foliage application, 320 g/ha, three weeks after application
Method in brief: as §4

[27] = tested on: velvetleaf; assay: Test Example 5: herbicidal effect by foliage application, plastic box (Table 20, symbol M); format: in vivo, velvetleaf (Abutilon theophrasti); details: foliage application, 320 g/ha, three weeks after application
Method in brief: as §4

[28] = tested on: redroot pigweed; assay: Test Example 5: herbicidal effect by foliage application, plastic box (Table 20, symbol N); format: in vivo, redroot pigweed (Amaranthus retroflexus); details: foliage application, 320 g/ha, three weeks after application
Method in brief: as §4

[29] = tested on: lambsquarters; assay: Test Example 5: herbicidal effect by foliage application, plastic box (Table 20, symbol O); format: in vivo, lambsquarters (Chenopodium album); details: foliage application, 320 g/ha, three weeks after application
Method in brief: as §4

[30] = tested on: chickweed; assay: Test Example 5: herbicidal effect by foliage application, plastic box (Table 20, symbol P); format: in vivo, common chickweed (Stellaria media); details: foliage application, 320 g/ha, three weeks after application
Method in brief: as §4

[31] = tested on: false cleavers; assay: Test Example 5: herbicidal effect by foliage application, plastic box (Table 20, symbol Q); format: in vivo, false cleavers (Galium spurium); details: foliage application, 320 g/ha, three weeks after application
Method in brief: as §4

[32] = tested on: persian speedwell; assay: Test Example 5: herbicidal effect by foliage application, plastic box (Table 20, symbol R); format: in vivo, Persian speedwell (Veronica persica); details: foliage application, 320 g/ha, three weeks after application
Method in brief: as §4

COc1ccc2c(-c3c(O)c(C)nn(C)c3=O)c(-c3ccc(SC)cc3)sc2c1 [3-074]
Herbicidal effect, A: late watergrass [1]: 0 (Herbicidal rate of 5% or less (almost no effect))
Herbicidal effect, B: Japanese bulrush [2]: 2 (Herbicidal rate of 20% or more and less than 40%)
Herbicidal effect, C: oval-leafed pondweed [3]: 0 (Herbicidal rate of 5% or less (almost no effect))
herbicidal effect on barnyard grass (H) [4]: 4 (Herbicidal rate of 70% or more and less than 90%)
herbicidal effect on Chinese sprangletop (D) [5]: 3 (Herbicidal rate of 40% or more and less than 70%)
herbicidal effect on rice flat sedge (E) [6]: 5 (Herbicidal rate of 90% or more (almost completely withered))
F: southern crabgrass, herbicidal effect grade [7]: 0 (Herbicidal rate of 5% or less (almost no effect))
G: green foxtail, herbicidal effect grade [8]: 0 (Herbicidal rate of 5% or less (almost no effect))
H: barnyard grass, herbicidal effect grade [9]: 0 (Herbicidal rate of 5% or less (almost no effect))
I: wild oat, herbicidal effect grade [10]: 0 (Herbicidal rate of 5% or less (almost no effect))
J: blackgrass, herbicidal effect grade [11]: 0 (Herbicidal rate of 5% or less (almost no effect))
K: Italian ryegrass, herbicidal effect grade [12]: 0 (Herbicidal rate of 5% or less (almost no effect))
L: windgrass, herbicidal effect grade [13]: 0 (Herbicidal rate of 5% or less (almost no effect))
M: velvetleaf, herbicidal effect grade [14]: 0 (Herbicidal rate of 5% or less (almost no effect))
N: redroot pigweed, herbicidal effect grade [15]: 5 (Herbicidal rate of 90% or more (almost completely withered))
O: lambsquarters, herbicidal effect grade [16]: 5 (Herbicidal rate of 90% or more (almost completely withered))
P: chickweed, herbicidal effect grade [17]: 3 (Herbicidal rate of 40% or more and less than 70%)
Q: false cleavers, herbicidal effect grade [18]: 0 (Herbicidal rate of 5% or less (almost no effect))
R: persian speedwell, herbicidal effect grade [19]: 5 (Herbicidal rate of 90% or more (almost completely withered))
F: southern crabgrass, herbicidal effect grade [20]: 2 (Herbicidal rate of 20% or more and less than 40%)
G: green foxtail, herbicidal effect grade [21]: 3 (Herbicidal rate of 40% or more and less than 70%)
H: barnyard grass, herbicidal effect grade [22]: 0 (Herbicidal rate of 5% or less (almost no effect))
I: wild oat, herbicidal effect grade [23]: 0 (Herbicidal rate of 5% or less (almost no effect))
J: blackgrass, herbicidal effect grade [24]: 0 (Herbicidal rate of 5% or less (almost no effect))
K: Italian ryegrass, herbicidal effect grade [25]: 0 (Herbicidal rate of 5% or less (almost no effect))
L: windgrass, herbicidal effect grade [26]: 3 (Herbicidal rate of 40% or more and less than 70%)
M: velvetleaf, herbicidal effect grade [27]: 4 (Herbicidal rate of 70% or more and less than 90%)
N: redroot pigweed, herbicidal effect grade [28]: 5 (Herbicidal rate of 90% or more (almost completely withered))
O: lambsquarters, herbicidal effect grade [29]: 5 (Herbicidal rate of 90% or more (almost completely withered))
P: chickweed, herbicidal effect grade [30]: 5 (Herbicidal rate of 90% or more (almost completely withered))
Q: false cleavers, herbicidal effect grade [31]: 5 (Herbicidal rate of 90% or more (almost completely withered))
R: persian speedwell, herbicidal effect grade [32]: 5 (Herbicidal rate of 90% or more (almost completely withered))
